Experimental data taken from patent publication US8394742B2, “Methods, compounds and compositions with genotype selective anticancer activity” (The Translation Genomics Research Institute, priority 2005, dated 2013).

Key:
[1] = system: BxPC-3-DPC4 cells; assay: MTS based cell proliferation assay, BxPC-3-DPC4 cells; set-up: species or system human; conditions: for IC50: BxPC-3-DPC4 (reexpression of wild-type DPC4), MTS, 4 days
Protocol: (§1) The inhibition of cell proliferation by library compounds was evaluated using the CellTiter 96 Non-Radioactive Cell Proliferation Assay following the protocol recommended by the manufacturer (Promega, Madison Wis.). Briefly, 2000 cells were seeded in each well of 96-well plates in 90 μl growth medium. Cells were allowed to attach overnight followed by addition of 10 μl of serially diluted compounds into the plates. After incubation for 4 days at 37° C. in a humidified incubator, 20 μl of a 20:1 mixture of (3-(4,5-dimethylthiazol-2-yl)-5-(3-carboxymethoxyphenyl)-2-(4-sulfophenyl)-2H-tetrazolium, inner salt (MTS, 2 mg/ml) and an electron coupling reagent, phenazine methosulfate (PMS, 0.92 mg/ml), was added to each well and incubated for 3 hours at 37° C. Absorbance was then measured using the Wallace Victor microplate reader at 490 nm (PerkinElmer, Wellesley, Mass.). Data were expressed as the percentage of cell growth calculated from the absorbance corrected for background absorbance. The surviving fraction of cells was determined by dividing the mean absorbance values of the treated samples by the mean absorbance values of the DMSO control.
After generating the isogenic cell lines for the DPC4 gene, Applicants then carried out a screening process using the cell lines with the aim to identify compounds that selectively kill cells with deficient DPC4 function. […] In each round, the anti-proliferative activity of compounds was evaluated in different cell lines using the CellTiter 96 Non-Radioactive Cell Proliferation Assay (Promega). In the Toxicity Screen, compounds were evaluated in the BxPC-3 parental cell line at a single concentration of 10 μM. […] The activities of a compound in the DPC4 isogenic cell lines were calculated and a selectivity index was determined for each concentration (Selectivity index=Percentage cell survival in BxPC-3-DPC4 cells/Percentage cell survival in BxPC-3-vector cells). […] These ten compounds were further evaluated in third round of screening, the Selectivity screening. […]

[2] = system: IMR-90; assay: MTS cell proliferation assay, IMR-90 normal fibroblasts; type: cell-based, human; conditions: IMR-90, even at 200 μM
Protocol: as §1
After generating the isogenic cell lines for the DPC4 gene, Applicants then carried out a screening process using the cell lines with the aim to identify compounds that selectively kill cells with deficient DPC4 function. […]

[3] = system: HPDE6-siDPC4 (HPDE6 cells with DPC4 expression stably suppressed by siRNA); assay: MTS cell proliferation assay, HPDE6-siDPC4 cells; type: cell-based; conditions: Homo sapiens
Protocol: At the initial screening, compounds are tested in the MTS assay (or other cell proliferation assays such as SRB and Alamar Blue) against the cell line in which the specific gene is either deleted or suppressed by siRNA at a single dose of 10 μM (Toxicity Screening).
Compounds that show more than 50% cell growth inhibition at this concentration are selected to test against both isogenic cell lines (loss-of-function vs. wild type) at three different concentrations (10, 2 and 0.4 μM, Synthetic lethal Screening). Compounds that show a selectivity index ≧5 are selected for next round of screening—Selectivity Screening.
In the Selectivity Screening, compounds are tested against cancer cell lines with a specific loss-of-function mutation and normal cells (HPDE6 and FORF-TERT). Depending on their approximate potency assessed in the Synthetic lethal Screening, compounds are tested in a range of concentrations (8 concentrations per agent) in Selectivity Screening. Compounds that have nM IC50 values in loss-of-function cells and selectivity index values >10 are selected for phenotypic consequence tests and in vivo evaluations in animal models.
The inhibition of cell proliferation by library compounds was evaluated using the CellTiter 96 Non-Radioactive Cell Proliferation Assay following the protocol recommended by the manufacturer (Promega, Madison Wis.). […]

[4] = system: DPC4 isogenic cell lines (BxPC-3-vector and BxPC-3-DPC4); assay: Pharmacological synthetic lethal screening in DPC4 isogenic cell lines; type: cell-based, human; conditions: reexpression isogenic cell lines
Description: To find molecules that selectively kill cells with specific deficiencies, Applicants use cell proliferation assays to screen molecules libraries in a high throughput manner. These molecule libraries can be small organic compounds, siRNA libraries, antisense libraries and antibody/protein libraries. To carry out the screening in an efficient and cost-effective way, Applicants have designed a procedure for the screening of small organic compound libraries which consists of three steps, namely Toxicity Screen, Synthetic Lethal Screen and Selectivity Screen (FIG. 12). […]
In the Selectivity Screening, compounds are tested against cancer cell lines with a specific loss-of-function mutation and normal cells (HPDE6 and FORF-TERT). Depending on their approximate potency assessed in the Synthetic lethal Screening, compounds are tested in a range of concentrations (8 concentrations per agent) in Selectivity Screening. […]
After generating the isogenic cell lines for the DPC4 gene, Applicants then carried out a screening process using the cell lines with the aim to identify compounds that selectively kill cells with deficient DPC4 function. […] In each round, the anti-proliferative activity of compounds was evaluated in different cell lines using the CellTiter 96 Non-Radioactive Cell Proliferation Assay (Promega). […]

O=C1c2ccccc2C(=O)c2c1ccc1c(=O)n(-c3ccccc3)[nH]c21 [UA62001, 2-phenyl-1H-Naphth [2,3-g]indazole-3,6,11(2H)-trione]
IC50 [1]: 14.7 ± 4.3 µM
IC50 ([1]; Homo sapiens, 96 h): 25 µM
IC50 values in two more stable clones of BxPC-3-DPC4 cells ([1]; two more stable clones, compared with the original clone): very similar to that in the original clone
growth inhibition [2]: little growth inhibition
IC50 [3]: 6 µM
selectivity against DPC4 deficiency [4]: DPC4 genotype selectivity
